Results reported in patent publication US20050282818A1, “Ubiquitin ligase inhibitors” (Rigel Pharmaceuticals, Inc., priority 2004, published 2005).
Read-outs that look alike come from different tables or passages of the source.

Key:
TRAF6/Uev1A/Ubc13 = biological target: T1, TRAF6/Uev1A/Ubc13 (Homo sapiens, UniProt Q9Y4K3); assay: TRAF6/Uev1A/Ubc13 plate-based ubiquitin ligase assay; type: biochemical
T1 sequence (Q9Y4K3 1-522): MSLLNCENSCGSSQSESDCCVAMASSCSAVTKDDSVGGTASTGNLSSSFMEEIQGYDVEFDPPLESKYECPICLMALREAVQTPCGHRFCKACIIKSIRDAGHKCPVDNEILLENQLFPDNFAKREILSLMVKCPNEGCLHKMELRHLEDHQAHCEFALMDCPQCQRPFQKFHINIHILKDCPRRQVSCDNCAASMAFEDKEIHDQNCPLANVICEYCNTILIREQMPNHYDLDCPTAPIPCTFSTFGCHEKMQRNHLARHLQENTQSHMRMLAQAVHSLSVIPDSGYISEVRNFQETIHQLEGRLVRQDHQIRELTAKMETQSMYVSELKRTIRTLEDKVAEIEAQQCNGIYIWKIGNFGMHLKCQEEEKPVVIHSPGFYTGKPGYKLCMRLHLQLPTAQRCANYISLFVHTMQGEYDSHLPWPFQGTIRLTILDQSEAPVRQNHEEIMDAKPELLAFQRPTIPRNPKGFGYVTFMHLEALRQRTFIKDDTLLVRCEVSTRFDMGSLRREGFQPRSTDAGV
Summary of the method: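 Ligase activity was read as luminescence from anti-Flag/HRP detection of Flag-ubiquitin bound to casein-blocked Ni-plates alongside His-ubiquitin after a 1 h room-temperature reaction. Buffer: 62.5 mM Tris pH 7.5, 6.25 mM MgCl2, 1.0 mM DTT, 2 μM ATP; E1, Uev1a/Ubc13 and TRAF6 added last to start. IC50s derived across compound concentrations.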

[1] = test system: ICAM-1 expression in A549 cells; assay: ICAM assay (IL-1 induced ICAM-1/CD54 expression in A549 cells); type: cell-based, human
Text: The expression of intercellular adhesion molecule (ICAM)-1 in endothelial cells is pivotal in supporting lymphocyte migration across the vascular endothelium. TNF/IL-1 induces the NF-kB pathway in which NF-kB acts as a transcription factor and activation of NF-kB induces ICAM expression. IkB inhibits NF-KB by binding to it and retaining NF-kB in the cytoplasm. Upon cytokine stimulation, several signaling molecule including TRAF6, IKKs, and TAK1 are activated which lead to the phosphorylation of IkB. Phosphorylated IkB is then ubiquitinated by the SCF complex and degraded by proteasome, thereby releasing NF-kB to translocate into the nucleus. In the nucleus, NF-kB binds to DNA and activates transcription of various genes that are involved in inflammation, cell survival, and apoptosis. The ICAM assay is a primary assay for HTS as well as a cell based assay for TRAF6 inhibitors.
The following materials are used 96-well plates; F12K complete medium that includes 10% FBS and 1% P/S (penicillin/streptomycin); 1×PBS; 5 ug/ml IL-1, Human CD54 (CALTAG Laboratory, Cat#MHCD5400-4); anti-mouse-IgG (Jackson Lab, Cat#115-035 146); and A549 cells.
Procedure. 10,000 A549 cells/well were seeded in 100 μl F12K complete medium in a 96-well white plate. The seeded plate was incubate at 37° C. incubator in 5% CO2 overnight. After the overnight incubation, 4 μl of diluted test compound was added and incubated for 1 hour at 37° C. After the 1 hour incubation, 4 μl of 25 ng/ml IL-1 was added to each well and the cells were stimulated at 37° C. for 4 hours.
After stimulation, the cells were stained with CD54 (1:1000 diluted with medium) and anti-mouse IgG (1:1100 diluted with medium) for 1 hour. Subsequently, the medium was removed and each well was washed with 200 μl of PBS three times. Detection of activity was performed by addition of 100 μl/well of lumino substrate.

A549 cells = assay: Cell proliferation PAD assay, A549; type: cell-based; conditions: 48 hours
Summary of the method: (§1)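 Cells were seeded at 2,000 per well and dosed 24 h later, in duplicate, with 6.3-fold dilution series from a 10 mM master stock diluted 500-fold into wells. After 48 h at 37 °C, 5% CO2, cells were formamide-fixed, DAPI-stained and imaged to count live, apoptotic and dead cells.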

H1299 cells = assay: Cell proliferation PAD assay, H1299; type: cell-based; conditions: 48 hours
Summary of the method: as §1

[2] = Homo sapiens, 3pt, read-out: A549 3pt
[3] = Homo sapiens, NCI-H1299, 3pt, read-out: H1299 3pt
[4] = Homo sapiens, 6pt, read-out: A549 6pt
[5] = Homo sapiens, NCI-H1299, 6pt, read-out: H1299 6pt

Compound | IC50 (TRAF6/Uev1A/Ubc13) | IC50 ([1]; ICAM assay) | IC50 (A549 cells; 3pt, read-out: A549 3pt) | IC50 (H1299 cells; 3pt, read-out: H1299 3pt) | IC50 ([1]; Homo sapiens, A549, ICAM assay) | IC50 (A549 cells; [2]) | IC50 (H1299 cells; [3]) | IC50 (A549 cells; [4]) | IC50 (H1299 cells; [5])
O=S(=O)(c1c(N2CCC(Oc3ncccn3)CC2)ccc2nonc12)N1CCC(Oc2ncccn2)CC1 [compound 236, 5-[4-(1,3-pyrimidin-2-yloxy)piperidin-1-yl]-4-{[4-(1,3-pyrimidin-2-yloxy)piperidin-1-yl]sulfonyl}-2,1,3-benzoxadiazole] | ≥ 20 µM |  |  |  | ≥ 20 µM | 1 to 20 µM | 1 to 20 µM |  | 
COC(=O)c1ccc(NS(=O)(=O)c2ccc(Sc3cccc4cccnc34)c3nonc23)cc1 [compound 174, methyl 4-({[7-(quinolin-8-ylthio)-2,1,3-benzoxadiazol-4-yl]sulfonyl}amino)benzoate] | ≥ 20 µM |  |  |  |  | 1 to 20 µM | 1 to 20 µM | 1 to 20 µM | 1 to 20 µM
O=[N+]([O-])c1ccc(N2CCN(c3ccccc3)CC2)c2nonc12 [compound 143, 4-nitro-7-(4-phenylpiperazin-1-yl)-2,1,3-benzoxadiazole] | ≥ 20 µM |  |  |  |  | ≥ 20 µM | ≥ 20 µM |  | 
O=S(=O)(Nc1ccc(Oc2ncccn2)c(Cl)c1)c1cccc2nonc12 [compound 91, N-[3-chloro-4-(pyrimidin-2-yloxy)phenyl]-2,1,3-benzoxadiazole-4-sulfonamide] | ≥ 20 µM |  |  |  |  | ≥ 20 µM | ≥ 20 µM |  | 
CC(=O)C1(c2ccccc2)CCN(c2ccc([N+](=O)[O-])c3nonc23)CC1 [compound 231, 1-[1-(7-nitro-2,1,3-benzoxadiazol-4-yl)-4-phenylpiperidin-4-yl]ethanone] | 1 to 20 µM |  |  |  |  | ≥ 20 µM | 1 to 20 µM |  | 
CC1(C)CCN(c2ccc([N+](=O)[O-])c3nonc23)CC1 [compound 242, 4-(4,4-dimethylpipendin-1-yl)-7-nitro-2,1,3-benzoxadiazole] | ≥ 20 µM |  |  |  |  |  |  | ≥ 20 µM | ≥ 20 µM
O=[N+]([O-])c1ccc(N2CCN(c3ccc4ccccc4n3)CC2)c2nonc12 [compound 155, 2-[4-(7-nitro-2,1,3-benzoxadiazol-4-yl)piperadin-1-yl]quinoline] | 1 to 20 µM |  |  |  |  | ≥ 20 µM | ≥ 20 µM |  | 
CN1CCN(c2ccc([N+](=O)[O-])c3nonc23)CC1 [compound 110, 4-(4-methylpiperazin-1-yl)-7-nitro-2,1,3-benzoxadiazole] | ≥ 20 µM |  |  |  |  | ≥ 20 µM | ≥ 20 µM |  | 
O=S(=O)(Nc1cccc2nonc12)c1ccc(Oc2ccccc2)cc1 [compound 93, N-2,1,3-benzoxadiazol-4-yl-4-phenoxybenzenesulfonamide] | 1 to 20 µM |  |  |  |  |  |  | ≥ 20 µM | ≥ 20 µM
O=C(OCc1ccccc1)N1CCN(c2ccc([N+](=O)[O-])c3nonc23)CC1 [compound 278, benzyl 4-(7-nitro-2,1,3-benzoxadiazol-4-yl)piperazine-1-carboxylate] | ≥ 20 µM |  |  |  |  | 1 to 20 µM | 1 to 20 µM |  | 
Cc1ccc(F)cc1NS(=O)(=O)c1cccc2nonc12 [compound 13, N-(5-fluoro-2-methylphenyl)-2,1,3-benzoxadiazole-4-sulfonamide] | ≥ 20 µM |  |  |  |  | ≥ 20 µM | ≥ 20 µM |  | 
O=[N+]([O-])c1ccc(N2CCN(c3ccc(Cl)c(C(F)(F)F)c3)CC2)c2nonc12 [compound 105, {4-[4-chloro-3-(trifluoromethyl)phenyl]piperazin-1-yl}-7-nitro-2,1,3-benzoxadiazole] | ≥ 20 µM |  |  |  |  | ≥ 20 µM | ≥ 20 µM |  | 
O=c1[nH]c2ccccc2n1C1CCN(c2ccc([N+](=O)[O-])c3nonc23)CC1 [compound 160, 1-[1-(7-nitro-2,1,3-benzoxadiazol-4-yl)piperidin-4-yl]-1,3-dihydro-2H-benzimidazol-2-one] | ≥ 20 µM |  |  |  |  | ≥ 20 µM | ≥ 20 µM |  | 
O=[N+]([O-])c1ccc(N2CCN(c3ccncc3)CC2)c2nonc12 [compound 108, 4-nitro-7-(4-pyridin-4-ylpiperazin-1-yl)-2,1,3-benzoxadiazole] | ≥ 20 µM |  |  |  |  | 1 to 20 µM | ≥ 20 µM |  | 

More lines, now with the values ahead:

IC50 (TRAF6/Uev1A/Ubc13) | IC50 ([1]; ICAM assay) | IC50 (A549 cells; 3pt, read-out: A549 3pt) | IC50 (H1299 cells; 3pt, read-out: H1299 3pt) | IC50 ([1]; Homo sapiens, A549, ICAM assay) | IC50 (A549 cells; [2]) | IC50 (H1299 cells; [3]) | IC50 (A549 cells; [4]) | IC50 (H1299 cells; [5]) | Compound
≥ 20 µM | ≥ 20 µM | 1 to 20 µM | 1 to 20 µM |  |  |  |  |  | O=S(=O)(c1ccc(Cl)c2nonc12)N1CCC(Oc2ncccn2)CC1 [compound 225, 4-chloro-7-{[4-(pyrimidin-2-yloxy)pipendin-1-yl]sulfonyl}-2,1,3-benzoxadiazole]
1 to 20 µM |  |  |  |  |  |  | 1 to 20 µM | ≥ 20 µM | O=S(=O)(c1ccc(N2CCN(c3ncccc3C(F)(F)F)CC2)c2nonc12)N1CCN(c2ncccc2C(F)(F)F)CC1 [compound 166, 4-{4-[3-(trifluoromethyl)pyridin-2-yl]piperazin-1-yl}-7-({4-[3-(trifluoromethyl)pyridin-2-yl]piperazin-1-yl}sulfonyl)-2,1,3-benzoxadiazole]
≥ 20 µM |  |  |  |  |  |  | < 1 µM | ≥ 20 µM | CC1(C)CCN(S(=O)(=O)c2ccc(F)c3nonc23)CC1 [compound 243, 4-[(4,4-dimethylpiperidin-1-yl)sulfonyl]-7-fluoro-2,1,3-benzoxadiazole]
≥ 20 µM |  |  |  |  |  |  | 1 to 20 µM | 1 to 20 µM | O=S(=O)(c1ccc(N2CCN(c3ccc(O)cc3)CC2)c2nonc12)N1CCN(c2ccc(O)cc2)CC1 [compound 173, 4-[4-({7-[4-(4-hydroxyphenyl)piperazin-1-yl]-2,1,3-benzoxadiazol-4-yl}sulfonyl)piperazin-1-yl]phenol]
1 to 20 µM |  |  |  |  | ≥ 20 µM | ≥ 20 µM | ≥ 20 µM | ≥ 20 µM | N#Cc1cccnc1N1CCN(S(=O)(=O)c2ccc(Sc3cccc4cccnc34)c3nonc23)CC1 [compound 176, 2-(4-{[7-(quinolin-8-ylthio)-2,1,3-benzoxadiazol-4-yl]sulfonyl}piperazin-1-yl)nicotinonitrile]
1 to 20 µM |  |  |  | ≥ 20 µM |  |  |  |  | O=S(=O)(Nc1cccc(F)c1F)c1ccc(Cl)c2nonc12 [compound 271, 7-chloro-N-(2,3-difluorophenyl)-2,1,3-benzoxadiazole-4-sulfonamide]
1 to 20 µM |  |  |  | ≥ 20 µM |  |  |  |  | O=S(=O)(Nc1cccc(F)c1F)c1ccc(F)c2nonc12 [compound 274, N-(2,3-difluorophenyl)-7-fluoro-2,1,3-benzoxadiazole-4-sulfonamide]
1 to 20 µM |  |  |  |  | ≥ 20 µM | ≥ 20 µM |  |  | COc1ccc(S(=O)(=O)N2CCN(c3ncc(C(F)(F)F)cc3Cl)CC2)c2nonc12 [compound 163, 4-({4-[3-chloro-5-(trifluoromethyl)pyridin-2-yl]piperazin-1-yl}sulfonyl)-7-methoxy-2,1,3-benzoxadiazole]
≥ 20 µM |  |  |  |  | ≥ 20 µM | ≥ 20 µM |  |  | O=S(=O)(c1cccc2nonc12)N1CCC(Oc2ncccn2)CC1 [compound 235]
≥ 20 µM |  |  |  |  | ≥ 20 µM | ≥ 20 µM |  |  | Nc1ccc(S(=O)(=O)Nc2ccnc(Cl)c2)c2nonc12 [compound 195, 7-amino-N-(2-chloropyridin-4-yl)-2,1,3-benzoxadiazole-4-sulfonamide]
